Experimental data as given in patent publication US10905117B2, “Antimicrobial agent containing polyalkyleneimine derivative” (NIPPON SHOKUBAI CO., LTD, priority 2014, dated 2021).

Tests used:
Type in all cases: cell-based
[1] = system: Staphylococcus aureus (NBRC-12732); assay: Minimum growth inhibitory concentration (MIC); details: 0.1% by weight agent with 1% by weight NaOH, pH 12.5, stored 18 days at 55° C.
Description: (§1) An aqueous solution containing the antimicrobial agent was serially diluted by two fold with a Mueller-Hinton medium to prepare dilution series of a medium containing the antimicrobial agent. After that, the medium containing the antimicrobial agent at each concentration was added, in an amount of 50 μl each, to a 96 well polystyrene plate. […] The prepared liquid containing microbial cells was diluted to 10×10^6 cells/mL or so in a Mueller-Hinton medium, and added in an amount of 50 μl to each of the dilution series prepared in the above. […] Presence or absence of the growth of the bacterial cells was determined with a naked eye by following an increase in turbidity. To an aqueous solution added with the polymer 1 which has been obtained in Preparation Example 1 and benzalkonium chloride at 0.1% by weight, various kinds of alkali modifying agent shown in Table 8 were mixed at 1% by weight to prepare an antimicrobial agent composition. The storage stability test was carried out for the antimicrobial agent compositions for 18 days at 55° C. […] Meanwhile, MIC values were described as concentration of the antimicrobial agent.

[2] = system: Escherichia coli (NBRC-3972); assay: Minimum growth inhibitory concentration (MIC); details: 0.1% by weight agent with 1% by weight NaOH, pH 12.5, stored 18 days at 55° C.
Description: as §1

[3] = system: Escherichia coli (NBRC-3972) and/or Staphylococcus aureus (NBRC-12732); assay: MIC in the presence of an anionic surfactant; details: in the presence of linear alkylbenzene sulfate 80 ppm and polyoxyalkylenealkyl ether sulfate 80 ppm
Description: An aqueous solution containing the antimicrobial agent was serially diluted by two fold with a Mueller-Hinton medium to prepare dilution series of a medium containing the antimicrobial agent. After that, the medium containing the antimicrobial agent at each concentration was added, in an amount of 50 μl each, to a 96 well polystyrene plate. Next, colonies of Escherichia coli (NBRC-3972) and/or Staphylococcus aureus (NBRC-12732) which have been grown for 18 hours in a Mueller-Hinton agar medium were suspended in a Butterfield's buffer solution to prepare a liquid containing microbial cells of 10×10^8 cells/mL or so. The prepared liquid containing microbial cells was diluted to 10×10^6 cells/mL or so in a Mueller-Hinton medium, and added in an amount of 50 μl to each of the dilution series prepared in the above. […] Presence or absence of the growth of the bacterial cells was determined with a naked eye by following an increase in turbidity.
As for the anionic surfactant, linear alkylbenzene sulfate was used at 80 ppm and polyoxyalkylenealkyl ether sulfate was used at 80 ppm.

## Benzalkonium chloride
[1]
  MIC Staphylococcus aureus after storage stability test: 250 ppm
[2]
  MIC Escherichia coli after storage stability test: 250 ppm
[3]
  MIC: 625 ppm
